Laboratory results published in the NIST ThermoML archive (doi:10.1016/j.jct.2013.06.008).
Numbers after ± are expanded uncertainties.

Conditions: 100 kPa, Liquid; for electrical conductivity: Alternating current cell with electrodes

CCC[n+]1cccc(C)c1.O=S(=O)([N-]S(=O)(=O)C(F)(F)F)C(F)(F)F
Conditions	electrical conductivity [S/m]
278.15 K	0.152 ± 0.003
283.15 K	0.199 ± 0.004
288.15 K	0.253 ± 0.005
293.15 K	0.318 ± 0.006
298.15 K	0.393 ± 0.008
303.15 K	0.476 ± 0.01
308.15 K	0.571 ± 0.011
313.15 K	0.671 ± 0.013
318.15 K	0.786 ± 0.016
323.15 K	0.904 ± 0.018
328.15 K	1.04 ± 0.021
333.15 K	1.18 ± 0.024
338.15 K	1.33 ± 0.027
343.15 K	1.49 ± 0.03
348.15 K	1.65 ± 0.033
353.15 K	1.83 ± 0.037

Conditions	mass density, Buoyancy - hydrostatic balance [kg/m3]	viscosity, Capillary tube (Ostwald / Ubbelohde) method [mPa·s]
288.15 K	1459.6 ± 2	–
293.15 K	1455.6 ± 2	–
298.15 K	1451.4 ± 2	54.12 ± 1.2
303.15 K	1447.1 ± 2	43.46 ± 0.99
308.15 K	1442.6 ± 2	35.27 ± 0.79
313.15 K	1438 ± 2	29.18 ± 0.65
318.15 K	1433.2 ± 2	24.32 ± 0.54
323.15 K	1428.7 ± 2	20.87 ± 0.46
328.15 K	1424.5 ± 2	17.94 ± 0.39
333.15 K	1420.3 ± 2	15.15 ± 0.33
338.15 K	1416 ± 2	13.4 ± 0.29
343.15 K	–	11.74 ± 0.25
348.15 K	–	10.37 ± 0.22
353.15 K	–	9.19 ± 0.2

CCCCCC[n+]1cccc(C)c1.O=S(=O)([N-]S(=O)(=O)C(F)(F)F)C(F)(F)F
Conditions	electrical conductivity [S/m]
278.15 K	0.0495 ± 0.001
283.15 K	0.067 ± 0.0013
288.15 K	0.0885 ± 0.0018
293.15 K	0.116 ± 0.0023
298.15 K	0.148 ± 0.003
303.15 K	0.187 ± 0.0037
308.15 K	0.231 ± 0.005
313.15 K	0.283 ± 0.006
318.15 K	0.342 ± 0.007
323.15 K	0.406 ± 0.008
328.15 K	0.477 ± 0.01
333.15 K	0.553 ± 0.011
338.15 K	0.638 ± 0.013
343.15 K	0.728 ± 0.015
348.15 K	0.822 ± 0.016
353.15 K	0.92 ± 0.018

Conditions	mass density, Buoyancy - hydrostatic balance [kg/m3]	viscosity, Capillary tube (Ostwald / Ubbelohde) method [mPa·s]
283.15 K	1373.6 ± 2	–
288.15 K	1369.7 ± 2	–
293.15 K	1365.3 ± 2	–
298.15 K	1361.5 ± 2	86.59 ± 2.1
303.15 K	1357 ± 2	67.83 ± 1.6
308.15 K	1352.9 ± 2	54.23 ± 1.2
313.15 K	1348.7 ± 2	44.24 ± 0.99
318.15 K	1344.7 ± 2	36.21 ± 0.81
323.15 K	1340.3 ± 2	29.97 ± 0.67
328.15 K	1336 ± 2	25.08 ± 0.55
333.15 K	1331.7 ± 2	21.31 ± 0.47
338.15 K	1328 ± 2	18.28 ± 0.4
343.15 K	–	15.88 ± 0.35
348.15 K	–	13.71 ± 0.3
353.15 K	–	11.99 ± 0.26

CCCCCC[n+]1ccc(C)cc1.O=S(=O)([N-]S(=O)(=O)C(F)(F)F)C(F)(F)F
Conditions	electrical conductivity [S/m]
283.15 K	0.0839 ± 0.0017
288.15 K	0.11 ± 0.0022
293.15 K	0.145 ± 0.0029
298.15 K	0.185 ± 0.0037
303.15 K	0.231 ± 0.005
308.15 K	0.283 ± 0.006
313.15 K	0.346 ± 0.007
318.15 K	0.415 ± 0.008
323.15 K	0.487 ± 0.01
328.15 K	0.571 ± 0.011
333.15 K	0.652 ± 0.013
338.15 K	0.756 ± 0.015
343.15 K	0.861 ± 0.017
348.15 K	0.968 ± 0.019
353.15 K	1.07 ± 0.022

Conditions	mass density, Vibrating tube method [kg/m3]	viscosity, Concentric cylinders viscometry [mPa·s]
283.15 K	1365.3 ± 2.1	181.62 ± 5.1
288.15 K	1360.8 ± 2.1	133.92 ± 3.6
293.15 K	1356.3 ± 2.1	101.07 ± 2.5
298.15 K	1351.8 ± 2.1	77.99 ± 1.8
303.15 K	1347.4 ± 2.1	61.3 ± 1.4
308.15 K	1342.9 ± 2.1	49.03 ± 1.1
313.15 K	1338.5 ± 2.1	39.75 ± 0.89
318.15 K	1334.1 ± 2.1	32.73 ± 0.72
323.15 K	1329.6 ± 2.1	27.38 ± 0.6
328.15 K	1325.2 ± 2.1	23.11 ± 0.51
333.15 K	1320.8 ± 2.1	19.71 ± 0.43
338.15 K	1316.5 ± 2.1	16.97 ± 0.37
343.15 K	1312.1 ± 2.1	14.73 ± 0.32
348.15 K	1307.8 ± 2.1	12.87 ± 0.28
353.15 K	1303.4 ± 2	11.32 ± 0.24
